Tests used:
Type in all cases: in vivo, mouse
1014 tumors = assay: Flow cytometry of tumor-infiltrating immune cells from 1014 tumors; conditions: day 7 post treatment, over the control group
SK-MEL-30 xenografts = assay: SK-MEL-30 xenograft model in Nu/J mice; conditions: trametinib chow and/or GSK2334470 100 mg/kg intraperitoneally every 3 days
Method: FIG. 4A-4B, In Nu/J mice, SK-MEL-30 tumor growth (FIG. 4A) represented as the change in volume (mm^3) over time and Kaplan-Meier survival curves (FIG. 4B) were shown from the start of treatment as indicated. Ctrl: control chow+mock injection (n=7), Tram: trametinib chow+mock injection (n=7), G4470: control chow+GSK2334470 injection (n=5), Comb: trametinib chow+GSK2334470 injection (n=7). Mice were injected and tumor volume was monitored every 3 days. Data are represented as the mean±SEM. The dotted line at 1000 mm^3 marks the experimental endpoint. p values were calculated by GraphPad Prism 9.0 with Log-rank (Mantel-Cox) test. n.s., not significant. […]
FIGS. 14A-14B: Sex disparities in SK-MEL-30 xenografts, in accordance with some embodiments. […] Mice were injected and tumor volume was monitored every 3 days. […] The dotted line at 1000 mm^3 marks the experimental endpoint. p values were calculated by GraphPad Prism 9.0 with Log-rank (Mantel-Cox) test. n.s., not significant.
(§1) Animal experiments were performed at Thomas Jefferson University in a facility accredited by the Association for the Assessment and Accreditation of Laboratory Animal Care and were approved by the Institutional Animal Care and Use Committee (protocol #1052). […] Mouse weights were monitored once a week or three times per week during drug treatment. […]

WM1366-iCas9 xenograft = WM1366-iCas9 xenograft tumor growth in Nu/J mice; conditions: trametinib-containing chow (0.3 ppm) compared with control chow
Text: FIG. 13A-13D: PDPK1 depletion delayed xenograft tumor growth in Nu/J mice, in accordance with some embodiments. FIG. 13A, Tumor growth of WM1366-iCas9 and PDPK1 knockout (KO) cells, represented as the change in volume (mm^3) over time, was shown from the start of injection to the start of treatment as indicated. Cyan dots indicated sacrifice of mice due to lack of visible tumors. The dotted line at 50 mm^3 indicates the size at which trametinib treatment was started. FIG. 13B: Time for tumor growth of WM1366-iCas9 cells to the start of treatment in male and female mice. Lines represent median number of days from the time of tumor implantation to the treatment size of 50 mm^3. The mouse without tumor formation was monitored for 105 days. p values were calculated with an unpaired two-tailed t test. […] FIG. 13D: Kaplan-Meier survival curves of WM1366-iCas9 tumor-bearing in female or male mice as indicated. p values were calculated by GraphPad Prism 9.0 with Log-rank (Mantel-Cox) test. n.s., not significant.
as §1

CC(=O)Nc1cccc(-n2c(=O)n(C3CC3)c(=O)c3c(Nc4ccc(I)cc4F)n(C)c(=O)c(C)c32)c1 [trametinib, N-(3-(3-cyclopropyl-5-((2-fluoro-4-iodophenyl)amino)-6,8-dimethyl-2,4,7-trioxo-3,4,6,7-tetrahydropyrido[4,3-d]pyrimidin-1(2H)-yl)phenyl)acetamide]
frequency of CD8+ T cells within the CD45+ cell compartment (1014 tumors): intermediate effect
tumor growth (SK-MEL-30 xenografts): suppressed tumor growth modestly
tumor growth (WM1366-iCas9 xenograft): delayed
